Where only a bound is given, the exact number is not on record here.

For this experiment, the target named is T1, human capsaicin receptor (Homo sapiens, UniProt Q8NER1).
T1 construct: A cDNA encoding full length human capsaicin receptor recited in U.S. Pat. No. 6,482,611 was subcloned in the plasmid pBK-CMV; expressed in transfected cells
T1 sequence (Q8NER1 whole entry): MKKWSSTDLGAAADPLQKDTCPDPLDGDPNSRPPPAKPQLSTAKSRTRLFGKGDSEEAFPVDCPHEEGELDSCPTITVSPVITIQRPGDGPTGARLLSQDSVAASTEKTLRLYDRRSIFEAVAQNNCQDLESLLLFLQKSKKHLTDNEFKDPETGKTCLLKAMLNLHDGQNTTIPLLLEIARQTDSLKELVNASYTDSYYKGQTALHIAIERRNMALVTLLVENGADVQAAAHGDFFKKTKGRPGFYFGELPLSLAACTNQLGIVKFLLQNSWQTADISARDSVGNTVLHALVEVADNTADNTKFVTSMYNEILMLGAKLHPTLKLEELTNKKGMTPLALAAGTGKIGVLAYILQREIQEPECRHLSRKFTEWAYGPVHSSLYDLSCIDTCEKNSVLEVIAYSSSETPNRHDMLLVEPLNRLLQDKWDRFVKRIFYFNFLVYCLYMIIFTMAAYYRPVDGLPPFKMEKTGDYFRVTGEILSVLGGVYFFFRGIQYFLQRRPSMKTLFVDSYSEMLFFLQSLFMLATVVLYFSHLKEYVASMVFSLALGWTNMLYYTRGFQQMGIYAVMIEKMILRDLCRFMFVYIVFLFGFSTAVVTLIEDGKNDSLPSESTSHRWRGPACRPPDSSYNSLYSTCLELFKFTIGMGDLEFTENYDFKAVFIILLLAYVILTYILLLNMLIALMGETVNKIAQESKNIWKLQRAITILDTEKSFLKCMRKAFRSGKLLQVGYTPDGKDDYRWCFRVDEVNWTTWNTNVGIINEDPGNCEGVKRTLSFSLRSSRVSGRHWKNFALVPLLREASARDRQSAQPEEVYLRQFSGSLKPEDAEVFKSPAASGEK
Put plainly: Calcium mobilization assay (Example 6). In kind it is cell-based. The settings on record: concentration required to provide a 50% decrease in the fluorescence response of cells exposed to one IC50 of capsaicin. As to the method: Human embryonic kidney (HEK293) cells were transfected with the pBK-CMV expression construct encoding the full length human capsaicin receptor using standard methods. The transfected cells were selected for two weeks in media containing G418 (400 μg/ml) to obtain a pool of stably transfected cells. Independent clones were isolated from this pool by limiting dilution to obtain clonal stable cell lines for use in subsequent experiments.
Cells transfected with expression plasmids (as described in Example 4) and thereby expressing human capsaicin receptor are seeded and grown to 70-90% confluency in FALCON black-walled, clear-bottomed 96-well plates (#3904, BECTON-DICKINSON, Franklin Lakes, N.J.). The culture medium is emptied from the 96 well plates and FLUO-3 AM calcium sensitive dye (Molecular Probes, Eugene, Oreg.) is added to each well (dye solution: 1 mg FLUO-3 AM, 440 μL DMSO and 440 μl 20% pluronic acid in DMSO, diluted 1:250 in Krebs-Ringer HEPES (KRH) buffer (25 mM HEPES, 5 mM KCl, 0.96 mM NaH2PO4, 1 mM MgSO4, 2 mM CaCl2, 5 mM glucose, 1 mM probenecid, pH 7.4), 50 μl diluted solution per well). Plates are covered with aluminum foil and incubated at 37° C. for 1-2 hours in an environment containing 5% CO2. After the incubation, the dye is emptied from the plates, and the cells are washed once with KRH buffer, and, resuspended in KRH buffer.
Agonist (e.g., olvanil, capsaicin, or RTX)-induced calcium mobilization is monitored using either FLUOROSKAN ASCENT (Labsystems, Franklin, Mass.) or FLIPR (fluorometric imaging plate reader system, Molecular Devices, Sunnyvale, Calif.) instruments. Varying concentrations of the antagonists ruthenium red or capsazepine (RBI; Natick, Mass.) are added to cells concurrently with agonist (e.g., 25-50 nM capsaicin). For agonist-induced calcium responses, data obtained between 30 and 60 seconds after agonist application are used to generate the IC50 values. KALEIDAGRAPH software (Synergy Software, Reading, Pa.) is used to fit the data to the equation: y=a*(1/(1+(b/x)^c)) to determine the IC50 for the response. In this equation, y is the maximum fluorescence signal, x is the concentration of the agonist or antagonist, a is the Emax, b corresponds to the IC50 value and c is the Hill coefficient.
To measure the ability of a test compound to antagonize (inhibit) the response of cells expressing capsaicin receptors to capsaicin or other vanilloid agonist, the IC50 of capsaicin is first determined. An additional 20 μl of KRH buffer and 1 μl DMSO is added to each well of cells, prepared as described above. 100 μl capsaicin in KRH buffer is automatically transferred by the FLIPR instrument to each well. An 8-point concentration response curve, with final capsaicin concentrations of 1 nM to 3 μM, is used to determine capsaicin IC50.
Test compounds are dissolved in DMSO, diluted in 20 μl KRH buffer so that the final concentration of test compounds in the assay well is between 1 μM and 5 μM, and added to cells prepared as described above. The 96 well plates containing prepared cells and test compounds are incubated in the dark, at room temperature for 0.5 to 6 hours. It is important that the incubation not continue beyond 6 hours. Just prior to determining the fluorescence response, 100 μl capsaicin in KRH buffer at twice the IC50 concentration determined from the concentration response curve is automatically added by the FLIPR instrument to each well of the 96 well plate for a final sample volume of 200 μl and a final capsaicin concentration equal to the IC50. The final concentration of test compounds in the assay wells is between 1 μM and 5 μM. […] Antagonists of the capsaicin receptor decrease this response by at least about 20%, preferably by at least about 50%, and most preferably by at least 80% as compared to matched control. The concentration of antagonist required to provide a 50% decrease is the IC50 for the antagonist, and is preferably below 1 micromolar, 100 nanomolar, 10 nanomolar or 1 nanomolar. […]
With `Cc1cc(Nc2ccc(C(F)(F)F)cc2)c2ccc(-c3ncccc3C(F)(F)F)cc2n1` [Compound 1, 2-methyl-N-[4-(trifluoromethyl)phenyl]-7-[3-(trifluoromethyl)pyridin-2-yl]quinolin-4-amine], the IC50 was at most 1000 nM.

For `COCc1cc(Nc2ccc(C(F)(F)F)cc2)c2ccc(-c3ncccc3C(F)(F)F)nc2n1` [Compound 2], the concentration for half-maximal inhibition (IC50) was at most 1000 nM.

As for `COCc1cc(Nc2ccc(C(C)(C)C)cc2)c2ccc(-c3ncccc3C(F)(F)F)nc2n1` [Compound 3], the IC50 is at most 1000 nM.

As for `COCc1nc2nc(-c3ncccc3C(F)(F)F)ccc2c(Nc2ccc(C(F)(F)F)cc2)c1C(=O)OC` [Compound 4, methyl 2-(methoxymethyl)-4-{[4-(trifluoromethyl)phenyl]amino}-7-[3-(trifluoromethyl)pyridin-2-yl]-1,8-naphthyridine-3-carboxylate], the IC50 was at most 1000 nM.

On to `OCc1cc(Nc2ccc(C(F)(F)F)cc2)c2ccc(-c3ncccc3C(F)(F)F)nc2n1` [Compound 5, {4-{[4-(trifluoromethyl)phenyl]amino}-7-[3-(trifluoromethyl)pyridin-2-yl]-1,8-naphthyridin-2-yl}methanol], for which the half-inhibitory concentration (IC50) is at most 1000 nM.

As to `COCc1nc2nc(-c3ncccc3C(F)(F)F)ccc2c(Nc2ccc(C(F)(F)F)cc2)c1C(=O)O` [Compound 6, 2-(methoxymethyl)-4-{[4-(trifluoromethyl)phenyl]amino}-7-[3-(trifluoromethyl)pyridin-2-yl]-1,8-naphthyridine-3-carboxylic acid], the IC50 was at most 1000 nM.

For the compound `CC(C)COCc1cc(Nc2ccc(C(F)(F)F)cc2)c2ccc(-c3ncccc3C(F)(F)F)nc2n1` [Compound 7, 2-(isobutoxymethyl)-N-[4-(trifluoromethyl)phenyl]-7-[3-(trifluoromethyl)pyridin-2-yl]-1,8-naphthyridin-4-amine], the IC50 is at most 1000 nM.

As for `COCc1cc(Nc2ccc(Cl)cc2)c2ccc(-c3ncccc3C(F)(F)F)nc2n1` [Compound 8, N-(4-chlorophenyl)-2-(methoxymethyl)-7-[3-(trifluoromethyl)pyridin-2-yl]-1,8-naphthyridin-4-amine], the concentration for half-maximal inhibition (IC50) is at most 1000 nM.

Regarding `COCc1cc(Nc2ccc(F)cc2)c2ccc(-c3ncccc3C(F)(F)F)nc2n1` [Compound 9, N-(4-fluorophenyl)-2-(methoxymethyl)-7-[3-(trifluoromethyl)pyridin-2-yl]-1,8-naphthyridin-4-amine], the IC50 is at most 1000 nM.

Take `COCc1cc(Nc2ccc(Cl)c(F)c2)c2ccc(-c3ncccc3C(F)(F)F)nc2n1` [Compound 10, N-(4-chloro-3-fluorophenyl)-2-(methoxymethyl)-7-[3-(trifluoromethyl)pyridin-2-yl]-1,8-naphthyridin-4-amine]: the half-maximal inhibitory concentration (IC50) is at most 1000 nM.

On to `COCc1cc(Nc2ccc(C#N)cc2)c2ccc(-c3ncccc3C(F)(F)F)nc2n1` [Compound 11, 4-({2-(methoxymethyl)-7-[3-(trifluoromethyl)pyridin-2-yl]-1,8-naphthyridin-4-yl}amino)benzonitrile], for which the half-maximal inhibitory concentration (IC50) is at most 1000 nM.

On to `O=C1OCc2nc3nc(-c4ncccc4C(F)(F)F)ccc3c(Nc3ccc(C(F)(F)F)cc3)c21` [Compound 12, 5-{[4-(trifluoromethyl)phenyl]amino}-2-[3-(trifluoromethyl)pyridin-2-yl]furo[3,4-b]-1,8-naphthyridin-6(8H)-one], for which the IC50 is at most 1000 nM.

`COCc1cc(Nc2ccc(S(=O)(=O)C(C)C)cc2)c2ccc(-c3ncccc3C(F)(F)F)nc2n1` [Compound 13, N-[4-(isopropylsulfonyl)phenyl]-2-(methoxymethyl)-7-[3-(trifluoromethyl)pyridin-2-yl]-1,8-naphthyridin-4-amine]: the IC50 was at most 1000 nM.

As to `COCc1cc(Nc2ccc(C(F)(F)F)cn2)c2ccc(-c3ncccc3C(F)(F)F)nc2n1` [Compound 14, 2-(methoxymethyl)-7-[3-(trifluoromethyl)pyridin-2-yl]-N-[5-(trifluoromethyl)pyridin-2-yl]-1,8-naphthyridin-4-amine], the IC50 was at most 1000 nM.

Take `COCc1cc(Nc2ccc(S(=O)(=O)C(F)(F)F)cc2)c2ccc(-c3ncccc3C(F)(F)F)nc2n1` [Compound 15, 2-(methoxymethyl)-7-[3-(trifluoromethyl)pyridin-2-yl]-N-{4-[(trifluoromethyl)sulfonyl]phenyl}-1,8-naphthyridin-4-amine]: the concentration for half-maximal inhibition (IC50) is at most 1000 nM.

Consider `COCc1cc(Nc2ccc3c(c2)NCCC3(C)C)c2ccc(-c3ncccc3C(F)(F)F)nc2n1` [Compound 16, N-(4,4-dimethyl-1,2,3,4-tetrahydroquinolin-7-yl)-2-(methoxymethyl)-7-[3-(trifluoromethyl)pyridin-2-yl]-1,8-naphthyridin-4-amine], for which the 50% inhibitory concentration (IC50) is at most 1000 nM.

For `COCc1cc(Nc2ccc3c(c2)CN(C)CC3(C)C)c2ccc(-c3ncccc3C(F)(F)F)nc2n1` [Compound 17, 2-(methoxymethyl)-7-[3-(trifluoromethyl)pyridin-2-yl]-N-(2,4,4-trimethyl-1,2,3,4-tetrahydroisoquinolin-7-yl)-1,8-naphthyridin-4-amine], the IC50 was at most 1000 nM.

For `CC(C)COc1cc(Nc2ccc(C(F)(F)F)cc2)c2ccc(-c3ncccc3C(F)(F)F)cc2n1` [Compound 18, 2-isobutoxy-N-[4-(trifluoromethyl)phenyl]-7-[3-(trifluoromethyl)pyridin-2-yl]quinolin-4-amine], the 50% inhibitory concentration (IC50) was at most 1000 nM.

Take `CC(C)COc1cc(Nc2ccc(C(C)(C)C)cc2)c2ccc(-c3ncccc3C(F)(F)F)cc2n1` [Compound 19, N-(4-tert-butylphenyl)-2-isobutoxy-7-[3-(trifluoromethyl)pyridin-2-yl]quinolin-4-amine]: the concentration for half-maximal inhibition (IC50) is at most 1000 nM.

On to `FC(F)(F)c1ccc(Nc2cc(Cl)nc3cc(-c4ncccc4C(F)(F)F)ccc23)cc1` [Compound 20, 2-chloro-N-[4-(trifluoromethyl)phenyl]-7-[3-(trifluoromethyl)pyridin-2-yl]quinolin-4-amine], for which the 50% inhibitory concentration (IC50) was at most 1000 nM.

On to `CC(C)(C)c1ccc(Nc2cc(O)nc3cc(-c4ncccc4C(F)(F)F)ccc23)cc1` [Compound 21, 4-[(4-tert-butylphenyl)amino]-7-[3-(trifluoromethyl)pyridin-2-yl]quinolin-2-ol], for which the IC50 is at most 1000 nM.

Regarding `CC(C)(C)c1ccc(Nc2cc(Cl)nc3cc(-c4ncccc4C(F)(F)F)ccc23)cc1` [Compound 22, N-(4-tert-butylphenyl)-2-chloro-7-[3-(trifluoromethyl)pyridin-2-yl]quinolin-4-amine], the IC50 is at most 1000 nM.

`CC(C)(C)c1ccc(Nc2cc(N3CCOCC3)nc3cc(-c4ncccc4C(F)(F)F)ccc23)cc1` [Compound 23, N-(4-tert-butylphenyl)-2-morpholin-4-yl-7-[3-(trifluoromethyl)pyridin-2-yl]quinolin-4-amine]: the 50% inhibitory concentration (IC50) is at most 1000 nM.

As to `C[C@@H]1CN(Cc2cc(Nc3ccc(C(F)(F)F)cc3)c3ccc(-c4ncccc4C(F)(F)F)nc3n2)C[C@H](C)O1` [Compound 24, 2-{[(2R,6S)-2,6-dimethylmorpholin-4-yl]methyl}-N-[4-(trifluoromethyl)phenyl]-7-[3-(trifluoromethyl)pyridin-2-yl]-1,8-naphthyridin-4-amine], the half-inhibitory concentration (IC50) is at most 1000 nM.

These data come from patent publication US7488740B2, “Substituted quinolin-4-ylamine analogues” (Neurogen Corporation, priority 2003, dated 2009).
